Data on four compounds can be found in ChEMBL document CHEMBL1156639, “Antiprotozoal activities of heterocyclic-substituted xanthones from the marine-derived fungus Chaetomium sp” (J Nat Prod, 2008).

Test [1] relates to Trypanosoma cruzi. Description: Antiprotozoal activity against Trypanosoma cruzi Tulahuen C4 in rat L6 cells. The format is functional, organism-based.
In test [2] the test system is Leishmania donovani. The test can be described thus: Antiprotozoal activity against Leishmania donovani MHOM-ET-67/L82 in mouse peritoneal macrophages. The format is functional, organism-based.
In test [3] the test system is Plasmodium falciparum. Description: Antimalarial activity against Plasmodium falciparum K1 in human erythrocytes by [3H]hypoxanthine uptake. The format is functional, organism-based.
Test [4] concerns Trypanosoma brucei rhodesiense. The test can be described thus: Antiprotozoal activity against Trypanosoma brucei rhodesiense STIB900. The class given is functional, organism-based.
Test [5] has as its system L6. The test can be described thus: Cytotoxicity against rat L6 cells. The class given is cell-based.

≈ marks a conversion by molar mass, not a printed value.

As usually defined, the IC50 is the point on the concentration scale where inhibition reaches its midpoint. Lower therefore signals inhibition by little substance.

In test [1], `O=C(Cn1ccnc1[N+](=O)[O-])NCc1ccccc1` [BENZNIDAZOLE] came in with a half-inhibitory concentration (IC50) of 0.317 µg/mL (≈ 1.22 µM).
As for `COc1cccc2oc3cc4c(c(O)c3c(=O)c12)[C@@H]1C[C@@H](O)C[C@](C)(O4)O1` [CHAETOXANTHONE A], the IC50 in test [1] is more than 10 µg/mL; in test [2], 5.3 µg/mL (≈ 14.3 µM); in test [3], 3.5 µg/mL (≈ 9.45 µM); in test [4], 4.7 µg/mL (≈ 12.7 µM); in test [5] it was 59.1 µg/mL (≈ 160 µM).
The like results for `COc1cccc2oc3cc4c(c(O)c3c(=O)c12)C1CCCC(C)(O4)O1` (stereo unspecified) [CHAETOXANTHONE B] were, in that order, 7.1 µg/mL (≈ 20 µM), 3.4 µg/mL (≈ 9.59 µM), 0.5 µg/mL (≈ 1.41 µM), 9.3 µg/mL (≈ 26.2 µM) and more than 90 µg/mL.
For `COc1cccc2oc3c(Cl)c(O)c([C@H]4CCC[C@@H](C)O4)c(O)c3c(=O)c12` [CHAETOXANTHONE C], the IC50 in test [1] was determined as 1.5 µg/mL (≈ 3.84 µM); in test [2], 3.1 µg/mL (≈ 7.93 µM); in test [3] it was 4 µg/mL (≈ 10.2 µM); in test [4], 42.6 µg/mL (≈ 109 µM); in test [5] it was 46.7 µg/mL (≈ 119 µM).
